Source: the NIST ThermoML archive (doi:10.1021/acs.jced.8b00552)
± gives the expanded uncertainty stated by the source.

Columns and labels:
[1] = Liquid, Ebulliometric method (Recirculating still)
[2] = refractive index (Na D-line) (dimensionless); details: 293.15 K; 101.33 kPa; Liquid; Standard Abbe refractometry

| SMILES | vapor or sublimation pressure ([1]; 332.65 K) [kPa] | vapor or sublimation pressure ([1]; 342.63 K) [kPa] | vapor or sublimation pressure ([1]; 349.06 K) [kPa] | refractive index [2] | vapor or sublimation pressure ([1]; 333.65 K) [kPa] | vapor or sublimation pressure ([1]; 343.55 K) [kPa] | vapor or sublimation pressure ([1]; 348.55 K) [kPa] |
| --- | --- | --- | --- | --- | --- | --- | --- |
| CC(C)CO [2-methyl-1-propanol] | 12.17 ± 0.63 | 20.07 ± 0.63 | 26.53 ± 0.64 | 1.3957 ± 0.002 |  |  |  |
| CCCCCO [pentan-1-ol] |  |  |  | 1.41 ± 0.002 | 3.43 ± 0.62 | 5.9 ± 0.62 | 7.67 ± 0.62 |
| CCC(C)=O [butanone] | 51.76 ± 0.63 | 72.71 ± 0.7 | 90.1 ± 0.79 | 1.3791 ± 0.002 | 52.42 ± 0.63 | 74.79 ± 0.7 | 88.29 ± 0.79 |
